Assay results published in patent publication US8962623B2, “Aminopyrazine compounds” (Locus Pharmaceuticals, Inc., priority 2011, dated 2015).

Tests used:
InsR = InsR (Homo sapiens, UniProt P06213); test: Inhibitory activity to InsR (similar procedure); assay type: biochemical; conditions: selectivity ratio
Method: (§1) Study of inhibitory activity to other various kinases (e.g. Lck, InsR, Btk) was performed in similar procedure above described.

Btk = Btk (Homo sapiens, UniProt Q06187); test: Inhibitory activity to Btk (similar procedure); assay type: biochemical; conditions: selectivity ratio
Method: as §1

Lck = Lck (Homo sapiens, UniProt P06239); test: Inhibitory activity to Lck (similar procedure); assay type: biochemical; conditions: selectivity ratio
Method: Study of inhibitory activity to Lck was performed in similar procedure above described.
as §1

Itk = target: T1, Itk (Homo sapiens, UniProt Q08881); test: Itk in vitro inhibitory activity in radioassay (33P incorporation into Phospholipase C-γ-1); assay type: biochemical; conditions: 20 μM ATP solution, read-out: IC50 over Itk
T1 construct: purchased Invitrogen
T1 sequence (Q08881 1-620): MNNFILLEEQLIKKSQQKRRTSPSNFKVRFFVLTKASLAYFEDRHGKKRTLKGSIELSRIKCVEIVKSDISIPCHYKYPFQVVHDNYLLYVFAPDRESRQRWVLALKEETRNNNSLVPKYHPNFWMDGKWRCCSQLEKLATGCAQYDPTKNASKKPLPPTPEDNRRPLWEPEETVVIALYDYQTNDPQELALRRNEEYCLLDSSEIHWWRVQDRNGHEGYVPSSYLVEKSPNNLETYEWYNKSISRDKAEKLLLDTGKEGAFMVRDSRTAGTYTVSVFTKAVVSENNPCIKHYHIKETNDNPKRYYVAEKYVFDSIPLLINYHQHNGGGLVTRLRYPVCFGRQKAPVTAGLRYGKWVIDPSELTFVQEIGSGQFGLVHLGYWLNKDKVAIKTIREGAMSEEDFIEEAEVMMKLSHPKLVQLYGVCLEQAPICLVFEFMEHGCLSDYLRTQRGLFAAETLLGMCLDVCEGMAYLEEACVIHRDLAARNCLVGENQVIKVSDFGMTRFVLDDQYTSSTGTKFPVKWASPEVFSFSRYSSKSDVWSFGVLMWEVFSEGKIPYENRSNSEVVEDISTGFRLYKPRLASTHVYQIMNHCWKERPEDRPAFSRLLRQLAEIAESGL
Method: The Itk protein kinase activity (Invitrogen) was determined by measuring the incorporation of ^33P from γ-[^33P] ATP into the Phospholipase C-γ-1 substrate (Calbiochem). The dilution series of the compound of the present invention were dissolved in DMSO. The diluted solution (1 μl) of the compounds of the present invention in DMSO was added to a 96-well assay plate. Additionally, Itk kinase solution (39 μL) composed of 3.2 nM Itk (Invitrogen) in reaction buffer (12.5 mM Tris (pH 7.5), 0.01% Triton X-100, 5% glycerol, 10 mM MgCl2, 1 mM EGTA, 5 mM glycerol 2-phosphate, 2 mM DTT and 0.5 mM sodium orthovanadate) was added to the assay plates. The solution was pre-incubated for 20 minutes at 30° C. with shaking. Then ATP/substrate solution (10 μl) composed of […] Phospholipase C-γ-1 (Calbiochem), 1.5% v/v γ-^33P-ATP (PerkinElmer), 20 μM ATP and reaction buffer was added. After incubating at 30° C. with shaking for 70 minutes, the reaction was stopped by adding 10 μl of 0.6 M phosphoric acid to each well. The each reaction from the assay plate was transferred and captured on a phosphocellulose 96-well plate (Millipore MAPHNOB). The reaction mixture was analyzed on the PerkinElmer TopCount NXT HTS 96-well Liquid Scintillation counter.
Inhibition rate (%) of the compound was calculated with the following formula: Inhibition rate(%)={1−(Bx−B100)/(B0−B100)}×100
BX: average counts for the compound
B100: average counts for 100% inhibition control (i.e., no enzyme, no compound)
B0: average counts for 0% inhibition control (i.e., no compound)
The value of 50% inhibition rate (IC50) for the compound was defined as the concentration of the test compound that caused a 50% decrease in the maximum inhibition. IC50 values were calculated from replicate curves by non-linear regression using the sigmoidal dose-response equation in GraphPad Prism software.

[1] = test system: IL-2 production in mouse whole blood; test: Mouse whole blood IL-2 assay; assay type: cell-based, BALB/c mouse; conditions: anti-CD3/anti-CD28 stimulation, 18 hours, IL-2 by ELISA
Method: The dilution series of the compound of the present invention in DMSO were further diluted by addition of RPMI1640 medium (Invitrogen). The diluted compound solution (6.5 μl) was added to a 96-well plate. BALB/c mouse heparinized peripheral blood was diluted 1:2 in RPMI1640, and added 123.5 μl of the diluted blood to the compound plate. The blood samples were pre-incubated at 37° C. for 30 minutes. Anti-CD3 and anti-CD28 antibody mixture (6 μl; 20 μg/mL each) was spotted into a 96 well assay plates. Pre-treated blood samples (114 μl) were added to each well and the plate was incubated for 18 hours at 37° C. in 5% CO2. After the incubation, supernatants were collected by centrifugation at 300×g for 10 min. IL-2 concentration was determined by ELISA method. The inhibition rate (%) of the compound was calculated with the following formula: Inhibition rate(%)={1−(Cx−C100)/(C0−C100)}×100
CX: IL-2 concentration for the compound
C100: IL-2 concentration for 100% inhibition control (i.e., no stimulation, no compound)
C0: IL-2 concentration for 0% inhibition control (i.e., no compound)
The value of 50% inhibition rate (IC50) for the compound was determined from inhibition curve based on inhibition rate at each concentration of the compound of the present invention.

InsR, sequence (P06213 28-1382, species assumed): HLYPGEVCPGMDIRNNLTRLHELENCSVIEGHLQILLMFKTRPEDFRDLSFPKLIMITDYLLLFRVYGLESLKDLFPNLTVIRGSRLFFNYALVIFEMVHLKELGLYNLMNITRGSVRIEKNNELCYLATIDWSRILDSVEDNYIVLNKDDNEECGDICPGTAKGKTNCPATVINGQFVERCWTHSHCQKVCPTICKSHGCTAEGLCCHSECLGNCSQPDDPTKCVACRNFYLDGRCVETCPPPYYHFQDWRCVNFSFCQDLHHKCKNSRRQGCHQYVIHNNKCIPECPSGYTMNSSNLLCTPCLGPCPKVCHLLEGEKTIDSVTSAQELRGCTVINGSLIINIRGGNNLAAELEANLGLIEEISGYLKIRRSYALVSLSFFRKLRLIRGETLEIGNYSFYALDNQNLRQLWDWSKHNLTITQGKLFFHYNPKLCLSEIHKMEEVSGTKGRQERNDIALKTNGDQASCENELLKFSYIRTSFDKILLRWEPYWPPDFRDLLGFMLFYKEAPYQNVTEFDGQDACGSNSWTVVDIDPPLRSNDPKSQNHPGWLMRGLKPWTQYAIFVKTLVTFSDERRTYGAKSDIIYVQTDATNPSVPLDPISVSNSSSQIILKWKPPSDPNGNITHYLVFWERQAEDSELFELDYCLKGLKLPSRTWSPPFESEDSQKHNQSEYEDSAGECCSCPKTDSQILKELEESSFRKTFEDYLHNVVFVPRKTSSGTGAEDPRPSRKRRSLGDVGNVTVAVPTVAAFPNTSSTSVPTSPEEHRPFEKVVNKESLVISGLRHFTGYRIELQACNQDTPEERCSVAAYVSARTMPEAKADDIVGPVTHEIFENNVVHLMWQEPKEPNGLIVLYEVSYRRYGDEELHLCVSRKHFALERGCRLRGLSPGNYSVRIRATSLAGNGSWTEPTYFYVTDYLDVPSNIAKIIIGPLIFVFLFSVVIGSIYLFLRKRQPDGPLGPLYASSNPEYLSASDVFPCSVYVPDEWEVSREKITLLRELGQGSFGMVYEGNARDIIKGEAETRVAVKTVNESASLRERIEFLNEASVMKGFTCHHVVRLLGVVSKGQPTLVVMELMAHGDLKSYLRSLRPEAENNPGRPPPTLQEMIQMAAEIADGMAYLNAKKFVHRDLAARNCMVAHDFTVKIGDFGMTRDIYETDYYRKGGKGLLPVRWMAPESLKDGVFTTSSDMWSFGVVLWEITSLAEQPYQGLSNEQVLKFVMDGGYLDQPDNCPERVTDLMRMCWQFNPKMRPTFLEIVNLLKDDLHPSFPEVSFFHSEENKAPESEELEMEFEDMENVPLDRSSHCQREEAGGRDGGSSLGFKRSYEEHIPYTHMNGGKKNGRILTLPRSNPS
Lck, sequence (P06239 whole entry, species assumed): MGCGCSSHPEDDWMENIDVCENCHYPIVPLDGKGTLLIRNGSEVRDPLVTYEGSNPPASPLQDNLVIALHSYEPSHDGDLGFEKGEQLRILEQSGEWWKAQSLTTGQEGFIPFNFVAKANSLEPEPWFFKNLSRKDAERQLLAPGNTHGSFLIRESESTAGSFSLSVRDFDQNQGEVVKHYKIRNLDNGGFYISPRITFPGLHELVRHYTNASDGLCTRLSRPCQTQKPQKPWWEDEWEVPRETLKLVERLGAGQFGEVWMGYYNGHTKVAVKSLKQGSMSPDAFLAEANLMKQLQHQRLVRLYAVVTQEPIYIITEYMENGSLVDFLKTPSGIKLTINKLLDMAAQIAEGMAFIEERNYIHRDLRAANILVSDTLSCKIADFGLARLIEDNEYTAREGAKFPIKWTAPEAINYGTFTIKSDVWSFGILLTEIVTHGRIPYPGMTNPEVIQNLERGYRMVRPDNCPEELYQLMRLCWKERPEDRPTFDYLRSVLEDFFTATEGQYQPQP
Btk, sequence (Q06187 whole entry, species assumed): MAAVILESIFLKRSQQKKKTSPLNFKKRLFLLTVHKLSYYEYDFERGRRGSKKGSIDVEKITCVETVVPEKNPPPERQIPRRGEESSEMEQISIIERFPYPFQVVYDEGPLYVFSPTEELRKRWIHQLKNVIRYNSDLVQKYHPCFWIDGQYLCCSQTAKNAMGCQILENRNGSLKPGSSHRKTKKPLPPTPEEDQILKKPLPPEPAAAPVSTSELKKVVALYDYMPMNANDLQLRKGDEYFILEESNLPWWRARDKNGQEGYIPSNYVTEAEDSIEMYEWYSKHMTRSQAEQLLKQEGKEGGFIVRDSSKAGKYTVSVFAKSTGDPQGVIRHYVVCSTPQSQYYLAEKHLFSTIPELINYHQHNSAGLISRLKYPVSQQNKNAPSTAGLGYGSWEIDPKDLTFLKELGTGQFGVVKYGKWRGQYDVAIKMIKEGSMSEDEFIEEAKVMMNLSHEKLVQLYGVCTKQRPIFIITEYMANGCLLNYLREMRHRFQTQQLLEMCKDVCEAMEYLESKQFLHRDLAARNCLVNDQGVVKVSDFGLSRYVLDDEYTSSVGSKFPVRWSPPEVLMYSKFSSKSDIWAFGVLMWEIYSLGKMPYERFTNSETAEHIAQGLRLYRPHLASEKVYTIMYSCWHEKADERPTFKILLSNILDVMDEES

## COC1CCN(c2cccc(-c3cnc(N)c(-c4ccc(NC(=O)c5c(C)n(C)n(-c6cccc(C)c6)c5=O)cc4)n3)n2)CC1 [Example 17(11), N-(4-{3-amino-6-[6-(4-methoxy-1-piperidinyl)-2-pyridinyl]-2-pyrazinyl}phenyl)-1,5-dimethyl-2-(3-methylphenyl)-3-oxo-2,3-dihydro-1H-pyrazole-4-carboxamide]
InsR
  InsR[IC50]/Itk[IC50]: >300
Btk
  Btk[IC50]/Itk[IC50]: >1000
Lck
  Lck[IC50]/Itk[IC50]: >300
Itk
  IC50: 1 nM

## Cc1c(C(=O)Nc2ccc(-c3nc(-c4cccc(N5CCOCC5)n4)cnc3N)cc2)c(=O)n(-c2ccccc2)n1C [Example 7(6), N-(4-{3-amino-6-[6-(4-morpholinyl)-2-pyridinyl]-2-pyrazinyl}phenyl)-1,5-dimethyl-3-oxo-2-phenyl-2,3-dihydro-1H-pyrazole-4-carboxamide]
InsR
  InsR[IC50]/Itk[IC50]: 100
Btk
  Btk[IC50]/Itk[IC50]: >200
Lck
  Lck[IC50]/Itk[IC50]: 85
Itk
  IC50: 2 nM

## COc1cccc(-n2c(=O)c(C(=O)Nc3ccc(-c4nc(-c5ccnc(N6CC(OC)C6)c5)cnc4N)nc3)c(C)n2C)c1 [Example 29(33), N-(6-{3-amino-6-[2-(3-methoxy-1-azetidinyl)-4-pyridinyl]-2-pyrazinyl}-3-pyridinyl)-2-(3-methoxyphenyl)-1,5-dimethyl-3-oxo-2,3-dihydro-1H-pyrazole-4-carboxamide]
Itk
  IC50: 4 nM

## COC1CN(c2cccc(-c3cnc(N)c(-c4ccc(NC(=O)c5c(C)n(C)n(-c6cccc(Cl)c6)c5=O)cc4)n3)n2)C1 [Example 14(12), N-(4-{3-amino-6-[6-(3-methoxy-1-azetidinyl)-2-pyridinyl]-2-pyrazinyl}phenyl)-2-(3-chlorophenyl)-1,5-dimethyl-3-oxo-2,3-dihydro-1H-pyrazole-4-carboxamide]
InsR
  InsR[IC50]/Itk[IC50]: 1400
Btk
  Btk[IC50]/Itk[IC50]: >500
Lck
  Lck[IC50]/Itk[IC50]: 185
Itk
  IC50: 2 nM

## Cc1c(C(=O)Nc2ccc(-c3nc(-c4ccnc(N5CCOCC5)c4)cnc3N)nc2)c(=O)n(-c2cccc(Cl)c2)n1C [Example 29(2), N-(6-{3-amino-6-[2-(4-morpholinyl)-4-pyridinyl]-2-pyrazinyl}-3-pyridinyl)-2-(3-chlorophenyl)-1,5-dimethyl-3-oxo-2,3-dihydro-1H-pyrazole-4-carboxamide]
InsR
  InsR[IC50]/Itk[IC50]: >1000
[1]
  IC50: 350 nM
Btk
  Btk[IC50]/Itk[IC50]: >1000
Lck
  Lck[IC50]/Itk[IC50]: >360
Itk
  IC50: 1 nM
